Data taken from the NIST ThermoML archive (doi:10.1021/acs.jced.9b00752).

Assay: mn = molality of the nth substance listed, in mol/kg
Settings: 100 kPa, Liquid, Vibrating tube method

N[C@@H](Cc1c[nH]cn1)C(=O)O [L-histidine] + O
mass density [kg/m3]
Settings	273.65 K	274.15 K	274.65 K	275.15 K	275.65 K	276.15 K	276.65 K	277.15 K	277.65 K	278.15 K
m1 = 0.0078	1000.36	1000.39	1000.41	1000.43	1000.44	1000.45	1000.46	1000.45	1000.45	1000.44
m1 = 0.0176	1000.94	1000.96	1000.99	1001	1001.01	1001.02	1001.02	1001.02	1001.02	1001.01
m1 = 0.0269	1001.55	1001.57	1001.59	1001.61	1001.62	1001.62	1001.62	1001.62	1001.62	1001.61
m1 = 0.048	1002.8	1002.82	1002.83	1002.85	1002.86	1002.86	1002.86	1002.85	1002.85	1002.84
m1 = 0.0636	1003.83	1003.85	1003.87	1003.88	1003.88	1003.88	1003.88	1003.88	1003.87	1003.85
m1 = 0.0856	1005.09	1005.11	1005.12	1005.12	1005.13	1005.13	1005.12	1005.11	1005.1	1005.09
m1 = 0.0982	1005.86	1005.87	1005.88	1005.89	1005.89	1005.89	1005.88	1005.87	1005.86	1005.85
m1 = 0.115	1006.76	1006.77	1006.77	1006.78	1006.78	1006.78	1006.77	1006.76	1006.75	1006.73
m1 = 0.1268	1007.55	1007.57	1007.57	1007.57	1007.57	1007.57	1007.56	1007.54	1007.53	1007.51
m1 = 0.138	1008.24	1008.25	1008.25	1008.25	1008.25	1008.25	1008.23	1008.22	1008.2	1008.18
m1 = 0.1586	1009.57	1009.58	1009.58	1009.58	1009.58	1009.57	1009.55	1009.54	1009.52	1009.5
